Source: patent US7173060B2, “Oxime derivatives and their use as pharmaceutically active agents” (Hoffmann-La Roche Inc., priority 2003, dated 2007)

System: histone deacetylase (HDAC)
Test: cellular acetylation assay (histone acetylation ELISA in PC3 cells)
Format: cell-based
Settings: PC3 human prostate carcinoma cells, compound 1 μM, 24 h incubation, ELISA with antibodies against acetylated histone H3 or H4
Description: Therein acetylation of histones is monitored in PC3 cells. High acetylation correlates with inhibition of histone deacetylase by compounds. Cell viability is monitored in parallel to estimate the cytotoxicity of compounds.
PC3 cells, a human prostate carcinoma cell line, are seeded as 1800 cells per well of a 384-well microtiterplate in RPMI 1640 (including 5% FCS, 2 mM glutamine and pen/strep). After 48 h at 37° C. pre-diluted compounds are added to a final concentration of 1 uM. Compounds are pre-diluted in dimethyl sulfoxide (DMSO) resulting in a final concentration of DMSO of 0.5% per well.
After 24 h incubation cell viability is determined by adding cell proliferation reagent WST-1 (Roche Molecular Biochemicals). Another 60 min later the optical density (OD) is measured (450 nm versus 690 nm).
After measurement the cell layer is prepared for the ELISA reaction. Medium is aspirated and cells are fixed in ethanol at −20° C. for 60 min. After washing with PBS/Tween the blocking solution (PBS/5% FCS/Tween) is added and the cell layer is washed again. Antibodies against acetylated histone H3 or H4 (rabbit polyklonal IgG, Upstate Biotechnologie) are added at a dilution of 1:200 for 60 min at 37° C. As a second antibody goat anti rabbit IgG (H+L) humanIgG adsorbed-HRP conjugate (Dako) is used (1:2000 diluted). Cells are washed 3 times and the peroxidase substrate ABTS is allowed to react for 30–60 min at 37° C. The OD is measured at 405 nm.
The percentage of acetylation is calculated after substraction of blank O.D.s: […]

Structure (SMILES) | cell acetylation (PC3, 1 μM) [% of control]
Nc1ccccc1NC(=O)c1ccc(CON=Cc2ccc3c(c2)OCCO3)s1 [Example 3, 5-(2,3-Dihydro-benzo[1,4]dioxin-6-ylmethyleneaminooxymethyl)-thiophene-2-carboxylic acid (2-amino-phenyl)-amide] | 116 % of control
COc1ccc(C(C)=NOCc2ccc(C(=O)Nc3ccccc3N)s2)cc1OC [4–9, 5-[1-(3,4-Dimethoxy-phenyl)-ethylideneaminooxymethyl]-thiophene-2-carboxylic acid (2-amino-phenyl)-amide] | 158 % of control
CC(=O)Nc1ccc(C(=O)Nc2ccccc2N)cc1 [4-acetylamino-N-(2-amino-phenyl)-benzamide, reference compound] | 152 % of control
Nc1ccccc1NC(=O)c1ccc(CON=C2Cc3ccccc3C2)s1 [4–7, 5-(Indan-2-ylideneaminooxymethyl)-thiophene-2-carboxylic acid (2-amino-phenyl)-amide] | 182 % of control
Nc1ccccc1NC(=O)c1ccc(CON=Cc2ccc(OC(F)(F)F)cc2)s1 [4–17, 5-(4-Trifluoromethoxy-benzylideneaminooxymethyl)-thiophene-2-carboxylic acid (2-amino-phenyl)-amide] | 127 % of control
COc1ccc(C=NOCc2ccc(C(=O)Nc3ccccc3N)s2)cc1OC [4–12, 5-(3,4-Dimethoxy-benzylideneaminooxymethyl)-thiophene-2-carboxylic acid (2-amino-phenyl)-amide] | 137 % of control
Nc1ccccc1NC(=O)c1ccc(CON=Cc2ccccc2)s1 [4–6, 5-Benzylideneaminooxymethyl-thiophene-2-carboxylic acid (2-amino-phenyl)-amide] | 180 % of control
Nc1ccccc1NC(=O)c1ccc(CON=Cc2cccnc2)s1 [4–21, 5-(Pyridin-3-ylmethyleneaminooxymethyl)-thiophene-2-carboxylic acid (2-amino-phenyl)-amide] | 135 % of control
